# Experimental data taken from PMC9124820, “In vitro evaluation of fenfluramine and norfenfluramine as victims of drug interactions” (Pharmacology Research & Perspectives, 2022).
# Target: T1, rCYP2B6 (Homo sapiens, UniProt P20813)
# T1 construct: purchased Cypex, Ltd; host or cells: Escherichia coli
# T1 sequence (P20813 1-491): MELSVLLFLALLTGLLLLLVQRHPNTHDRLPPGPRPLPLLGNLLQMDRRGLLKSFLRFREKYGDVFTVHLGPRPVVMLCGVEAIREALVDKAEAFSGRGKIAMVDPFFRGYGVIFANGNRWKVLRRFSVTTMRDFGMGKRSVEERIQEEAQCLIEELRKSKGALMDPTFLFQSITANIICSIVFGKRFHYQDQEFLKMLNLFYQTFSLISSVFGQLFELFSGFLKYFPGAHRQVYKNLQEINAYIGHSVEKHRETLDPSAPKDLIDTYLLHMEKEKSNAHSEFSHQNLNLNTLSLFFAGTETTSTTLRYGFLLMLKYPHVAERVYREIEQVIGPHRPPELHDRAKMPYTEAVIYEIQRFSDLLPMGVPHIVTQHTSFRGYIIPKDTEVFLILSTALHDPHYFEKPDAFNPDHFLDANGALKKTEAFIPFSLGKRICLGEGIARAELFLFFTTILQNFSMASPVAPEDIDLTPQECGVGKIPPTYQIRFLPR
# Assay: Reaction phenotyping with rCYP2B6
# Assay type: in vitro ADME
# Procedure: For FFA and nFFA reaction phenotyping experiments, LC‐MS/MS experiments were performed using an API 4000 QTRAP or QTRAP 5500 mass spectrometer (SCIEX) with positive electrospray ionization. Chromatography was performed using an Atlantis dC18 analytical column (100 × 2.1 mm, 5 µm; Waters Corporation). Mobile phases were 0.2% v/v formic acid in water and 0.2% v/v formic acid in methanol. FFA and nFFA were eluted at a flow rate of 0.5 mL/min with a linear gradient of 40%−95% methanol from 0.20−2.1 min. The mass transitions monitored were 232.0>109.0 for FFA, 204.0>159.0 for nFFA, 348.0>330.0 for 1’‐hydroxymidazolam‐d4 internal standard (FFA reaction phenotyping), and 262.0>244.0 for hydroxybupropion‐d6 internal standard (nFFA reaction phenotyping). Analyst Instrument Control and Data Processing software (v. 1.6.1) was used for collecting and integrating data (SCIEX). Calibration curves ranging from 1.25 µM−0.01 µM were used to quantify nFFA. Relative quantitation was used to approximate the amount of FFA test material used.
# Methods used to evaluate the role of CYP450s in the metabolism of FFA have been described.[22], [23], [24] […] Supernatant fractions were analyzed by LC‐MS/MS.
structure (smiles),measurement,setting,value
"CCNC(C)Cc1cccc(C(F)(F)F)c1 (racemic) [FFA, (RS)‐ethyl (α‐methyl‐3‐trifluoromethylphenethyl)amine]",FFA disappearance,"1 µM FFA, rCYP2B6",10%
same,FFA loss,"10 μM FFA, rCYP2B6, 60 min",21%
